Measurements reported in US20100280061A1, “NOVEL ANALGESIC THAT BINDS FILAMIN A” (priority 2009, published 2010).

What was measured:
[1] = target: T1, mu opiate receptor (MOR) (Rattus norvegicus, UniProt P33535); assay: [35S]GTPγS binding assay using striatal membranes (MOR agonist activity); format: biochemical; design: MOR agonist activity, [35S]GTPγS binding to Gαo, 0.1 μM / MOR agonist activity, [35S]GTPγS binding to Gαo, 1 μM / MOR agonist activity, [35S]GTPγS binding to Gαo, 1 μM + BFNA: reference not given here; conditions: for MOR agonist activity, [35S]GTPγS binding to Gαo, 0.1 μM: 0.1 μM compound; for MOR agonist activity, [35S]GTPγS binding to Gαo, 0.1 μM / MOR agonist activity, [35S]GTPγS binding to Gαo, 1 μM: striatal membranes; for MOR agonist activity, [35S]GTPγS binding to Gαo, 1 μM + BFNA: 1 μM compound + 1 μM β-funaltrexamine; for MOR agonist activity, [35S]GTPγS binding to Gαo, 1 μM: 1 μM compound
T1 construct: from tissue; host or cells: striatal tissue (membrane preparation)
Method: To assess the mu opiate receptor (MOR) agonist activity of positive compounds from the FLNA screening, compounds were tested in a [^35S]GTPγS binding assay using striatal membranes. Our previous study has shown that in striatal membranes, activation of MOR leads to an increase in [^35S]GTPγS binding to Gαo (Wang et al., 2005 Neuroscience 135:247-261).
Striatal tissue was homogenized in 10 volumes of ice cold 25 mM HEPES buffer, pH 7.4, which contained 1 mM EGTA, 100 mM sucrose, 50 μg/ml leupeptin, 0.04 mM PMSF, 2 μg/ml soybean trypsin inhibitor and 0.2% 2-mercaptoethanol. The homogenates were centrifuged at 800×g for 5 minutes and the supernatants were centrifuged at 49,000×g for 20 minutes. The resulting pellets were suspended in 10 volume of reaction buffer, which contained 25 mM HEPES, pH 7.5, 100 mM NaCl, 50 μg/ml leupeptin, 2 μg/ml soybean trypsin inhibitor, 0.04 mM PMSF and 0.02% […].
The resultant striatal membrane preparation (200 μg) was admixed and maintained (incubated) at 30° C. for 5 minutes in reaction buffer as above that additionally contained 1 mM MgCl2 and 0.5 nM [^35S]GTPγS (0.1 μCi/assay, PerkinElmer Life and Analytical Sciences) in a total volume of 250 μl and continued for 5 minutes in the absence or presence of 0.1-10 μM of an assayed compound of interest. The reaction was terminated by dilution with 750 μl of ice-cold reaction buffer that contained 20 mM MgCl2 and 1 mM EGTA and immediate centrifugation at 16,000×g for 5 minutes.
The resulting pellet was solubilized by sonicating for 10 seconds in 0.5 ml of immunoprecipitation buffer containing 0.5% digitonin, 0.2% sodium cholate and 0.5% NP-40. Normal rabbit serum (1 μl) was added to 1 ml of lysate and incubated at 25° C. for 30 minutes. Nonspecific immune complexes were removed by incubation with 25 μl of protein A/G-conjugated agarose beads at 25° C. for 30 minutes followed by centrifugation at 5,000×g at 4° C. for 5 minutes. The supernatant was divided and separately incubated at 25° C. for 30 minutes with antibodies raised against Gαo proteins (1:1,000 dilutions).
The immunocomplexes so formed were collected by incubation at 25° C. for 30 minutes with 40 μl of agarose-conjugated protein A/G beads and centrifugation at 5,000×g at 4° C. for 5 minutes. The pellet was washed and suspended in buffer containing 50 mM Tris-HCl, pH 8.0, and 1% NP-40. The radioactivity in the suspension was determined by liquid scintillation spectrometry. […] DAMGO (H-Tyr-D-Ala-Gly-N-MePhe-Gly-OH; 1 or 10 μM) was used as a positive control.

[2] = target: Bn-VAKGL pentapeptide of filamin A (FLNA) (Homo sapiens, UniProt P21333); assay: FITC-NLX-based FLNA screening assay (FLNA peptide binding assay); conditions: 10 nM FITC-NLX; for Percent inhibition of FITC-NLX binding, 0.01 μM: 0.01 μM compound; for Percent inhibition of FITC-NLX binding, 0.1 μM: 0.1 μM compound; for Percent inhibition of FITC-NLX binding, 1 μM: 1 μM compound
Method: The final assay volume is 100 μl.
Compounds are tested in triplicate or quadruplicate.

T1 sequence (P33535 whole entry): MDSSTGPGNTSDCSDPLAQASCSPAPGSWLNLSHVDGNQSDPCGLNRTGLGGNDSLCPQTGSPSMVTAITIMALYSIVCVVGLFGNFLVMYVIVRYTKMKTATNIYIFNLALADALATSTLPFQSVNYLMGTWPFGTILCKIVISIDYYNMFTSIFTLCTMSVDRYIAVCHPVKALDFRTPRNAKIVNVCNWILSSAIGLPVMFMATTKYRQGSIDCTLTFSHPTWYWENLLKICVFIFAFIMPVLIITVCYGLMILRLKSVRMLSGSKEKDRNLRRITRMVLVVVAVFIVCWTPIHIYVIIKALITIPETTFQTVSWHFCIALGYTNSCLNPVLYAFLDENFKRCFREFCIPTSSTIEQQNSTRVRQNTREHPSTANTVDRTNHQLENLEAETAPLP

| Compound | MOR agonist activity, [35S]GTPγS binding to Gαo, 0.1 μM [1] | MOR agonist activity, [35S]GTPγS binding to Gαo, 1 μM + BFNA [1] | MOR agonist activity, [35S]GTPγS binding to Gαo, 1 μM [1] | Percent inhibition of FITC-NLX binding, 0.01 μM [2] | Percent inhibition of FITC-NLX binding, 0.1 μM [2] | Percent inhibition of FITC-NLX binding, 1 μM [2] |
| --- | --- | --- | --- | --- | --- | --- |
| COc1ccc(OC)c(CCC(=O)CC2c3c(cc4c(c3OC)OCO4)CC[N+]2(C)C)c1 (stereo not drawn) [B0044] | 87.3% | 134.6% | 170.0% | 35.2% | 39.5% | 44.4% |
| COc1ccc(CC(=O)CC2c3c(cc4c(c3OC)OCO4)CC[N+]2(C)C)c(OC)c1 (stereo not drawn) [B0029] | 171.9% | 17.6% | 210.3% | 33.4% | 42.9% | 50.2% |
| COc1cc(CC(=O)CC2c3c(cc4c(c3OC)OCO4)CC[N+]2(C)C)cc(OC)c1OC (stereo not drawn) [B0008] | 148.3% | 46.0% | 264.1% | 35.5% | 40.3% | 52.8% |
| COc1ccc(C(=O)CC2c3c(cc4c(c3OC)OCO4)CC[N+]2(C)C)c(F)c1.[I-] (stereo not drawn) [B0027] | 140.9% | 21.6% | 266.9% | 40.2% | 46.7% | 49.8% |
| COc1c2c(cc3c1C(CC(O)CCc1ccccc1)N(C)CC3)OCO2 (stereo not drawn) [B0051] | 115.6% | 43.8% | 161.9% | 29.9% | 35.7% | 43.7% |
| COc1ccccc1CC(O)CC1c2c(cc3c(c2OC)OCO3)CC[N+]1(C)C.[I-] (stereo not drawn) [B0032] | 221.1% | 15.6% | 297.7% | 45.1% | 51.3% | 48.9% |
| COc1cccc(CC(=O)CC2c3c(cc4c(c3OC)OCO4)CC[N+]2(C)C)c1OC (stereo not drawn) [B0038] | 147.5% | 117.1% | 205.3% | 41.2% | 50.1% | 57.0% |
| COc1ccc(C(=O)CC2c3c(cc4c(c3OC)OCO4)CC[N+]2(C)C)c(O)c1.[I-] (stereo not drawn) [B0033] | 149.3% | 41.9% | 188.9% | 42.1% | 46.8% | 49.4% |
| COCOc1ccc(C(=O)CC2c3c(cc4c(c3OC)OCO4)CC[N+]2(C)C)cc1C.[I-] (stereo not drawn) [B0041] | 61.6% | 41.9% | 109.3% | 44.0% | 46.8% | 52.8% |
| COc1ccc(CCC(O)CC2c3c(cc4c(c3OC)OCO4)CC[N+]2(C)C)cc1 (stereo not drawn) [B0049] | 181.6% | 133.2% | 364.0% | 32.2% | 40.1% | 47.1% |
| COc1c2c(cc3c1C(CC(O)CCc1ccccc1)[N+](C)(C)CC3)OCO2 (stereo not drawn) [B0052] | 98.2% | 40.9% | 151.7% | 30.2% | 39.1% | 44.3% |
| COc1c2c(cc3c1C(CC(=O)CCc1ccc(Cl)cc1)[N+](C)(C)CC3)OCO2 (stereo not drawn) [B0017] | 99.6% | 49.6% | 122.0% | 28.3% | 36.6% | 44.6% |
| COc1ccc(C(=O)CC2c3c(cc4c(c3OC)OCO4)CC[N+]2(C)C)cc1 (stereo not drawn) [B0024] | 155.8% | 20.2% | 285.9% | 34.8% | 43.4% | 47.7% |
| COc1ccc(CCC(=O)CC2c3c(cc4c(c3OC)OCO4)CC[N+]2(C)C)c(OC)c1 (stereo not drawn) [B0043] | 74.8% | 166.4% | 248.1% | 30.8% | 39.2% | 46.8% |
| COc1cccc(OC)c1C(=O)CC1c2c(cc3c(c2OC)OCO3)CC[N+]1(C)C.[I-] (stereo not drawn) [B0023] | 166.1% | 28.4% | 245.3% | 28.5% | 37.8% | 46.4% |
| COc1ccc(CCC(O)CC2c3c(cc4c(c3OC)OCO4)CCN2C)cc1 (stereo not drawn) [B0048] | 185.1% | 78.5% | 223.4% | 34.7% | 41.9% | 43.9% |
